Laboratory results from US7714014B2, “Targeting GLI proteins in human cancer by small molecules” (The Regents of the University of California, priority 2005, dated 2010).

Key:
Colon Cancer HT29 tumor = assay: Mouse Xenograft Model (Colon Cancer HT29); format: in vivo
Protocol: The small molecule compound FN1-8 was tested in vivo in the mouse xenograft model bearing human cancer cells. Briefly, female athymic nude mice strain NCRNU-M (5-10 weeks old, 20-25 grams in weight; Taconic, Germantown, N.Y.) was maintained in pathogen-free conditions. Three human cancer cell lines: NSCLC H460, melanoma LOX, (both showing Gli3 activation), and colon cancer HT29 (no Gli3 activation, as a negative control), were used. Ten mice were used in each group and injected s.c. with 3×10^6 cancer cells in the dorsal area in a volume of 100 μl. After inoculation, human cancer cells were allowed to grow in mice for 7 days to become visible tumor nodules. Animals were then injected with small molecule compound FN1-8 at a dose of 50 mg/kg body weight (1 mg/mouse per day). DMSO alone was used as control. The compounds and controls were adjusted in 40 ul volume for i.p. injection in the abdomens of the mice. […] Tumor size was measured every three days, and tumor volumes were calculated using width (x) and length (y) (x^2y/2, where x<y). […]
In vivo efficacy study of small molecule compound FN1-8 were also performed using a negative Mouse Xenograft Model (Colon Cancer HT29). […] Tumor size was measured with a caliper every three days. Tumor volumes were calculated using the equation x^2y (where x<y). […]

211H (mesothelioma) = assay: Apoptosis analysis (Annexin V FITC, flow cytometry); format: cell-based, human; conditions: 3 days
Protocol: (§1) Apoptosis was analyzed by using an Annexin V FITC Apoptosis Detection Kit (Biosource, Camarillo, Calif.), according to the manufacturer's protocol. After treatment with different small molecule compounds at various concentrations for about 3 days, cells were harvested by trypsinization, stained and immediately analyzed by flow cytometry (FACScan; Decton Dickinson, Franklin Lake, N.J.). Early apoptotic cells with exposed phosphatidylserine but intact cell membranes will bind to Annexin V-FITC, but not propidium iodide (PI). Cells in necrotic or late apoptotic stages will be labeled with both Annexin V-FITC and PI. “% apoptotic cells” or “% apoptosis” refers to the combined early and late apoptotic cells.
Flow cytometry was used to examine apoptosis in the mesothelioma cell line 211H after treatment of cells with small molecule compounds FN1-5 and FN1-8.

[1] = system: colon cancer cell lines LoVo and CaCO2; assay: Cell survival assay (crystal violet); format: cell-based, human; conditions: for cell killing: data not shown
Protocol: (§2) Typically, the small molecule compounds of the present invention were dissolved in DMSO at a concentration of 30 mM. The small molecule compounds were then tested under cell culture conditions at different concentrations ranging from 0, 10, 30, 50, to 100 uM. To determine cell survival after treatment, the cells were incubated with the small molecule compounds in 6-well plates for about 3 days. After removal of the cell culture medium, 1-ml of 0.5% crystal violet solution (prepared in 20% ethanol and 20% methanol) was added to stain the cells for 5 min. Then the crystal violet solution was rinsed clean with tap water. Cell survival was estimated based on the density of crystal stained plates.
Both, small molecule compounds FN1-5 and FN1-8 induced apoptosis in CaCO2 (Tables 2 and 3).

[2] = system: hedgehog pathway in melanoma cell line LOX, colon cancer cell line SW480 and primary cultured human mesothelioma cells; assay: Semi-quantitative RT-PCR of Hedgehog pathway genes; format: cell-based; conditions: data not shown
Protocol: Total RNA from cell lines or tissue samples was isolated using Qiagen RNeasy Mini Kit (Valencia, Calif.). RT-PCR was performed in GeneAmp PCR system 2700 (Applied Biosystems, Foster City, Calif.) using One-step RT-PCR Kit from Invitrogen Life Technologies (Carlsbad, Calif.). Primers for RT-PCR were obtained from Operon Technologies Inc. (Alameda, Calif.). Primer sequences for amplifying different genes in Hedgehog and Wnt signaling pathways are listed in the table below (Table 1; F, forward primer; R, reverse primer). The expected size of the PCR product is indicated for each primer pair. GAPDH was used as internal control.

LOX (melanoma) = assay: Apoptosis analysis (Annexin V FITC, flow cytometry); format: cell-based, human; conditions: 3 days
Protocol: as §1
The cell killing of LOX cells by treatment with small molecule compounds FN1-5 and FN1-8 was analyzed in greater detail using various concentrations of these two compounds and flow cytometry. […] (Tables 2 and 3).

[3] = system: primary cultured human mesothelioma cells; assay: Cell survival assay (crystal violet); format: cell-based; conditions: for cell killing effect: 50 and 100 μM, 3 days
Protocol: Fresh cancer tissue and adjacent normal tissue from patients undergoing curative primary resection of their tumors were collected at the time of surgery (IRB approval H8714-15319-040), and immediately snap-frozen in liquid nitrogen. These tissue samples were kept at −170° C. in a liquid nitrogen freezer until further use. Primary tissue cultures were prepared as follows: Fresh cancer tissue was obtained with consent from patients undergoing resection, cut into small pieces (1-2 mm in diameter), and then digested with Collagenase A (Roche Applied Science, Indianapolis, Ind.) at room temperature for 2 hours according to manufacture's protocol. Single cells from the digestion were spun down and the cell pellets were washed twice using RPMI 1640 supplemented with 10% fetal bovine serum, penicillin (100 IU/ml) and streptomycin (100 μg/ml). Then, the cells were resuspended in the same medium and cultured in 6-well plates at 37° C. in a humid incubator with 5% CO2 until they were ready for further treatments.
as §2
Next, the effect of different small molecule compounds on primary cultured human mesothelioma cells freshly made from tissue samples was examined. The primary cultures were plated in 6-well plates as described herein and incubated with 50 and 100 μM of each compound (FN1-5, FN1-7, FN1-8, and FN3-5; stocks were dissolved in DMSO at 30 mM) for 3 days. […] (FIG. 8).

Row | Compound | tumor weight (Colon Cancer HT29 tumor; 15 mg/kg daily 2×6 days then 30 mg/kg daily 1×6 days i.p., 43 days after inoculation) | % of apoptotic cells (211H (mesothelioma); 10 μM) [%] | % of apoptotic cells (211H (mesothelioma); 30 μM) [%] | cell killing [1] | modulation of hedgehog pathway (RT-PCR) [2] | % of apoptotic cells (LOX (melanoma); 10 μM) [%] | % of apoptotic cells (LOX (melanoma); 30 μM) [%] | % of apoptotic cells (LOX (melanoma); 50 μM) [%] | cell killing effect [3] | tumor growth (Colon Cancer HT29 tumor; 50 mg/kg i.p. daily for 2×6 days) | cell killing potency compared with FN1-5 [1] | cell killing potency compared with FN1-5 ([3]; same dose)
1 | O=C(NCCCCCO)C1C(c2ccccc2)=NN(c2ccccc2)C1c1ccccc1 (centres unmarked) [FN1-5, N-(5-Hydroxypentyl)-1,3,5-triphenyl-4,5-dihydro-pyrazole-4-carboxyamide] | slightly decreased the tumor weight | 7.7 | 37.5 | dramatic cell killing | modulate the hedgehog pathway | 14.0 | 16.6 | 58.1 | Dramatic cell killing effect | – | – | –
2 | O=C(NCCc1ccc(O)cc1)C1C(c2ccccc2)=NN(c2ccccc2)C1c1ccccc1 (centres unmarked) [FN1-8, N-(2-(4-Hydroxyphenyl)ethyl)-1,3,5-triphenyl-4,5-dihydro-pyrazole-4-carboxyamide] | – | 5.6 | 30.7 | dramatic cell killing | modulate the hedgehog pathway | 16.7 | 19.0 | 78.9 | Dramatic cell killing effect | not affected | more potent than FN1-5 | more potent than FN1-5
